Results on 17 compounds are retold here after US9107410B2, “Pesticidal compositions and processes related thereto” (Dow AgroSciences LLC, priority 2011, dated 2015).

Like-named read-outs stand apart in the source and are kept apart here.

Common to all, as to assay type: in vivo
Assay [1] deals with Green Peach Aphid (GPA) (Myzus persicae). The experiment in a line: Bioassay on green peach aphid (GPA), foliar spray on cabbage seedlings. Particulars: 72 h, read-out: % Mortality GPA 200 ppm. The method, then: Certain molecules disclosed in this document were tested against GPA using procedures described in the following example. In the reporting of the results, the “GPA Rating Table” was used (See Table Section).
Cabbage seedlings grown in 3-inch pots, with 2-3 small (3-5 cm) true leaves, were used as test substrate. The seedlings were infested with 20-50 GPA (wingless adult and nymph stages) one day prior to chemical application. Four pots with individual seedlings were used for each treatment. Test compounds (2 mg) were dissolved in 2 mL of acetone/methanol (1:1) solvent, forming stock solutions of 1000 ppm test compound. The stock solutions were diluted 5× with 0.025% Tween 20 in H2O to obtain the solution at 200 ppm test compound. A hand-held aspirator-type sprayer was used for spraying a solution to both sides of […] leaves until runoff. Reference plants (solvent check) were sprayed with the diluent only containing 20% by volume of acetone/methanol (1:1) solvent. Treated plants were held in a holding room for three days at approximately 25° C. and ambient relative humidity (RH) prior to grading. Evaluation was conducted by counting the number of live aphids per plant under a microscope. Percent Control was measured by using Abbott's correction formula (W. S. Abbott, “A Method of Computing the Effectiveness of an Insecticide” J. Econ. Entomol. 18 (1925), pp. 265-267) as follows. Corrected % Control=100*(X−Y)/X • where • X=No. of live aphids on solvent check plants and • Y=No. of live aphids on treated plants

The subject of assay [2] is Beet Armyworm (BAW) (Spodoptera exigua). The assay can be described thus: Bioassay on beet armyworm (BAW), 128-well diet tray assay. Particulars: 168 h, read-out: % Mortality BAW 50 μg/cm^2. The method, then:
(§1) Certain molecules disclosed in this document were tested against BAW and CEW using procedures described in the following examples. In the reporting of the results, the “BAW & CEW Rating Table” was used (See Table Section).
Bioassays on BAW (Spodoptera exigua)
Bioassays on BAW were conducted using a 128-well diet tray assay. One to five second instar BAW larvae were placed in each well (3 mL) of the diet tray that had been previously filled with 1 mL of artificial diet to which 50 μg/cm^2 of the test compound (dissolved in 50 μL of 90:10 acetone-water mixture) had been applied (to each of eight wells) and then allowed to dry. Trays were covered with a clear self-adhesive cover, and held at 25° C., 14:10 light-dark for five to seven days. Percent mortality was recorded for the larvae in each well; activity in the eight wells was then averaged. The results are indicated in the table entitled “Table: Bio Results” (See Table Section).

In assay [3] the test system is Corn Earworm (CEW) (Helicoverpa zea). The experiment in a line: Bioassay on corn earworm (CEW), 128-well diet tray assay. As to conditions: 168 h, read-out: % Mortality CEW 50 μg/cm^2. The method, then: as §1
Bioassays on CEW (Helicoverpa zea)
Bioassays on CEW were conducted using a 128-well diet tray assay. One to five second instar CEW larvae were placed in each well (3 mL) of the diet tray that had been previously filled with 1 mL of artificial diet to which 50 μg/cm^2 of the test compound (dissolved in 50 μL of 90:10 acetone-water mixture) had been applied (to each of eight wells) and then allowed to dry. Trays were covered with a clear self-adhesive cover, and held at 25° C., 14:10 light-dark for five to seven days. Percent mortality was recorded for the larvae in each well; activity in the eight wells was then averaged. The results are indicated in the table entitled “Table: Bio Results” (See Table Section).

Where [4] appears, read: 200 ppm foliar spray on cabbage seedlings, graded after three days, Abbott corrected % control.
Setting [5] is: 50 μg/cm^2 on artificial diet, second instar larvae, 25° C., five to seven days, average of eight wells.

Consider `COc1ccc(OC(=O)NC2CC2c2ccc(-c3ncn(-c4ccc(OC(F)(F)F)cc4)n3)cc2)cc1` (centres unmarked) [Compound 27, 4-Methoxyphenyl 2-(4-(1-(4-(trifluoromethoxy)phenyl)-1H-1,2,4-triazol-3-yl)phenyl)-cyclopropylcarbamate], for which the mortality at 200 ppm in assay [1] (foliar) was 0%. Also, the mortality at 50 µg/cm2 in assay [2] fell in the range of 0 to 50%; in assay [3], 50 to 100%.

For `Cc1ccc(NC(=S)NC2CC2c2ccc(-c3ncn(-c4ccc(OC(F)(F)F)cc4)n3)cc2)c(C)c1` (centres unmarked) [Compound 11, 1-(2,4-Dimethylphenyl)-3-(2-(4-(1-(4-(trifluoromethoxy)phenyl)-1H-1,2,4-triazol-3-yl)phenyl)cyclopropyl)thiourea], in assay [1] (setting [4]), the mortality at 200 ppm lay in the range of 0 to 80%. In addition, the mortality at 50 µg/cm2 in assay [2] (setting [5]) and in assay [3] (setting [5]) was 50 to 100% in each case.

Consider `CC(OC(=O)NC1CC1c1ccc(-c2ncn(-c3ccc(OC(F)(F)F)cc3)n2)cc1)c1ccccn1` (centres unmarked) [Compound 20, 1-(Pyridin-2-yl)ethyl 2-(4-(1-(4-(trifluoromethoxy)phenyl)-1H-1,2,4-triazol-3-yl)phenyl)-cyclopropylcarbamate], for which the mortality at 200 ppm in assay [1] (foliar) is 0 to 80%. The mortality at 50 µg/cm2 in assay [2] and in assay [3] was 50 to 100% each time.

On to `CN(C)c1ccc(NC(=S)NC2CC2c2ccc(-c3ncn(-c4ccc(OC(F)(F)F)cc4)n3)cc2)cc1` (centres unmarked) [Compound 7, 1-(4-Dimethylaminophenyl)-3-(2-{4-[1-(4-trifluoromethoxyphenyl)-1H-[1,2,4]triazol-3-yl]phenyl}cyclopropyl)thiourea], for which the mortality at 200 ppm in assay [1] (setting [4]) turned out to be 0%. Further, the mortality at 50 µg/cm2 in assay [2] (setting [5]) and in assay [3] (setting [5]) was 50 to 100% each time.

Take `O=C(Nc1c(Cl)cccc1Cl)NC1CC1c1ccc(-c2ncn(-c3ccc(OC(F)(F)F)cc3)n2)cc1` (centres unmarked) [Compound 31, 1-(2,6-Dichlorophenyl)-3-(2-(4-(1-(4-(trifluoromethoxy)phenyl)-1H-1,2,4-triazol-3-yl)phenyl)cyclopropyl)urea]: the mortality at 200 ppm in assay [1] (setting [4]) amounted to 0%. For the same compound, the mortality at 50 µg/cm2 in assay [2] (setting [5]) and in assay [3] (setting [5]) was 0% in each case.

With `FC(F)(F)Oc1ccc(-n2cnc(-c3ccc(C4CC4NC(=S)Nc4c(Cl)cccc4Cl)cc3)n2)cc1` (centres unmarked) [Compound 2, 1-(2,6-Dichlorophenyl)-3-(2-{4-[1-(4-trifluoromethoxyphenyl)-1H-[1,2,4]triazol-3-yl]phenyl}cyclopropyl)thiourea], in assay [1] (setting [4]), the mortality at 200 ppm fell in the range of 0 to 80%. The mortality at 50 µg/cm2 in assay [2] (setting [5]) and in assay [3] (setting [5]) was 50 to 100% in each case.

In the case of `Cc1cc(C)c(NC(=S)NC2CC2c2ccc(-c3ncn(-c4ccc(OC(F)(F)F)cc4)n3)cc2)c(C)c1` (centres unmarked) [Compound 9, 1-(2-{4-[1-(4-Trifluoromethoxyphenyl)-1H-[1,2,4]triazol-3-yl]phenyl}-cyclopropyl)-3-(2,4,6-trimethylphenyl)thiourea], the mortality at 200 ppm in assay [1] (setting [4]) stood at 0%. Besides, the mortality at 50 µg/cm2 in assay [2] (setting [5]) and in assay [3] (setting [5]) was 50 to 100% throughout.

Regarding `O=C(NC1CC1c1ccc(-c2ncn(-c3ccc(OC(F)(F)F)cc3)n2)cc1)Oc1ccccc1` (centres unmarked) [Compound 21, Phenyl 2-(4-(1-(4-(trifluoromethoxy)phenyl)-1H-1,2,4-triazol-3-yl)phenyl)cyclopropyl-carbamate], the mortality at 200 ppm in assay [1] (foliar) came out at 0%. Also, the mortality at 50 µg/cm2 in assay [2] and in assay [3] was 50 to 100% in each case.

As to `COc1ccc(NC(=S)NC2CC2c2ccc(-c3ncn(-c4ccc(OC(F)(F)F)cc4)n3)cc2)c(C(C)C)c1` (centres unmarked) [Compound 13, 1-(2-Isopropyl-4-methoxyphenyl)-3-(2-(4-(1-(4-(trifluoromethoxy)phenyl)-1H-1,2,4-triazol-3-yl)phenyl)cyclopropyl)thiourea], the mortality at 200 ppm in assay [1] (setting [4]) stood at 0%. In addition, the mortality at 50 µg/cm2 in assay [2] (setting [5]) and in assay [3] (setting [5]) was 50 to 100% each time.

On to `CC(C)(C)OC(=O)NC1CC1c1ccc(-c2ncn(-c3ccc(OC(F)(F)F)cc3)n2)cc1` (centres unmarked) [Compound 17, tert-Butyl 2-(4-(1-(4-(trifluoromethoxy)phenyl)-1H-1,2,4-triazol-3-yl)phenyl)-cyclopropylcarbamate], for which, in assay [1] (setting [4]), the mortality at 200 ppm was 0%. The mortality at 50 µg/cm2 in assay [2] (setting [5]) and in assay [3] (setting [5]) was 50 to 100% each time.

For `Cc1cc(C)c(OC(=O)NC2CC2c2ccc(-c3ncn(-c4ccc(OC(F)(F)F)cc4)n3)cc2)c(C)c1` (centres unmarked) [Compound 26, Mesityl 2-(4-(1-(4-(trifluoromethoxy)phenyl)-1H-1,2,4-triazol-3-yl)phenyl)cyclopropyl-carbamate], the mortality at 200 ppm in assay [1] (foliar) turned out to be 0%. The figures for the mortality at 50 µg/cm2 in assay [2] and in assay [3] were 50 to 100% and 0 to 50%, respectively.

Regarding `COC(=O)NC1CC1c1ccc(-c2ncn(-c3ccc(OC(F)(F)F)cc3)n2)cc1` (centres unmarked) [Compound 18, Methyl 2-(4-(1-(4-(trifluoromethoxy)phenyl)-1H-1,2,4-triazol-3-yl)phenyl)cyclopropyl-carbamate], in assay [1] (foliar), the mortality at 200 ppm turned out to be 0%. Also, the mortality at 50 µg/cm2 in assay [2] is 0%; in assay [3] it was 0 to 50%.

Regarding `COc1cc(C)c(NC(=S)NC2CC2c2ccc(-c3ncn(-c4ccc(OC(F)(F)F)cc4)n3)cc2)c(C)n1` (centres unmarked) [Compound 14, 1-(6-Methoxy-2,4-dimethylpyridin-3-yl)-3-(2-(4-(1-(4-(trifluoromethoxy)-phenyl)-1H-1,2,4-triazol-3-yl)phenyl)cyclopropyl)thiourea], the mortality at 200 ppm in assay [1] (setting [4]) was in the range of 0 to 80%. Also, the mortality at 50 µg/cm2 in assay [2] (setting [5]) and in assay [3] (setting [5]) was 50 to 100% each time.

Consider `O=C(NC1CC1c1ccc(-c2ncn(-c3ccc(OC(F)(F)F)cc3)n2)cc1)Oc1ccccc1C(F)(F)F` (centres unmarked) [Compound 25, 2-(Trifluoromethyl)phenyl 2-(4-(1-(4-(trifluoromethoxy)phenyl)-1H-1,2,4-triazol-3-yl)-phenyl)cyclopropylcarbamate], for which, in assay [1] (foliar), the mortality at 200 ppm was in the range of 0 to 80%. For the same compound, the mortality at 50 µg/cm2 in assay [2] and in assay [3] was 0% throughout.

As for `CC(OC(=O)NC1CC1c1ccc(-c2ncn(-c3ccc(OC(F)(F)F)cc3)n2)cc1)c1ccccc1` (centres unmarked) [Compound 19, 1-Phenylethyl 2-(4-(1-(4-(trifluoromethoxy)phenyl)-1H-1,2,4-triazol-3-yl)phenyl)-cyclopropylcarbamate], the mortality at 200 ppm in assay [1] (foliar) was 0 to 80%. Moreover, the values for the mortality at 50 µg/cm2 in assay [2] and in assay [3] were 0% and 50 to 100%, respectively.

Regarding `Cc1cc(C)c(/N=C(/NC2CC2c2ccc(-c3ncn(-c4ccc(OC(F)(F)F)cc4)n3)cc2)SCOC(=O)C(C)C)c(C)c1` (centres unmarked) [Compound 16, (Z)-(N′-Mesityl-N-(2-(4-(1-(4-(trifluoromethoxy)phenyl)-1H-1,2,4-triazol-3-yl)phenyl)cyclopropyl)carbamimidoylthio)methyl isobutyrate], in assay [1] (setting [4]), the mortality at 200 ppm amounted to 0%.

With `Cc1cccc(C)c1/N=C(/NC1CC1c1ccc(-c2ncn(-c3ccc(OC(F)(F)F)cc3)n2)cc1)SCOC(=O)C(C)C` (centres unmarked) [Compound 15, (Z)-(N′-(2,6-dimethylphenyl)-N-(2-(4-(1-(4-(trifluoromethoxy)phenyl)-1H-1,2,4-triazol-3-yl)phenyl)cyclopropyl)-carbamimidoylthio)methyl isobutyrate], in assay [1] (setting [4]), the mortality at 200 ppm was in the range of 0 to 80%.
